In BindingDB's records for doi:10.1016/j.chembiol.2016.10.011 (H. Lee Moffitt Cancer Center & Research Institute, 2016) one finds IC50 data, which are given here for five molecules.

The structures appear in SMILES notation.

In test [1] the target is T1, GDH/6PGL endoplasmic bifunctional protein (Homo sapiens, UniProt O95479).
T1 sequence (O95479 whole entry): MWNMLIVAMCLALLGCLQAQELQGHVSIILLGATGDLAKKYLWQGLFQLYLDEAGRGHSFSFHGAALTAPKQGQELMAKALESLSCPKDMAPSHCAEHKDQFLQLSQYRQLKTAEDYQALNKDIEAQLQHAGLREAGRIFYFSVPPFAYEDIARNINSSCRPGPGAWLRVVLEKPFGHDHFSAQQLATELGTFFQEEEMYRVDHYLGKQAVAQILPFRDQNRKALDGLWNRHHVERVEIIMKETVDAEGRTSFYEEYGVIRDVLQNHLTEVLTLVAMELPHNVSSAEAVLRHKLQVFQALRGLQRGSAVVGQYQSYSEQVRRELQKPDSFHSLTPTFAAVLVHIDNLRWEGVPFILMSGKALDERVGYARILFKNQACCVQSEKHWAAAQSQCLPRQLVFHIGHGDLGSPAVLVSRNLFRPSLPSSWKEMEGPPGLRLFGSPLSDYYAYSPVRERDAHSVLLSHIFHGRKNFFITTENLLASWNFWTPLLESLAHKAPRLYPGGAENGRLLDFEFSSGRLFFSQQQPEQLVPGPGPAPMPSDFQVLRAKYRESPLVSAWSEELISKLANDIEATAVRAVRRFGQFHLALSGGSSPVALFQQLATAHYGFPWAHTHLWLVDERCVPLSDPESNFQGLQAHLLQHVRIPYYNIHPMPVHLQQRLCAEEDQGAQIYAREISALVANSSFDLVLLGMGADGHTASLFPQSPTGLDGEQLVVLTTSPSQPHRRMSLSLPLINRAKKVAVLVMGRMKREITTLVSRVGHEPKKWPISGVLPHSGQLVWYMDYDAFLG
Kind of test: H6PD Activity Assay. The protocol:
HEK293 H6PD-OE and HEK293 pellets were lysed and the lysate was quantified with the Bradford protein assay. Reaction mix containing galactose-6-phosphate (Gal6P) was combined with increasing concentrations of PARPi or DMSO. As an additional control, reaction mix without substrate was combined with HEK293 H6PD-OE lysate. Lysate from HEK293 or HEK293 H6PD-OE was added to each well to start the reactions. The absorbance at 340 nm (NADPH) was measured for 90 min at 10 min intervals. The 60 min data, which were within the linear range, was used for analysis. Background absorbance was subtracted and the H6PD activity of theHEK293 H6PD-OE lysates treated with PARPi was normalized to the DMSO control.

Test [2] concerns the target Poly [ADP-ribose] polymerase 1 (Homo sapiens, UniProt P09874). The test is described as follows: In Vitro PARP1 Activity Assay. The protocol: Inhibition of PARP1 was assessed using the Universal Chemiluminescent PARPKit. Luminescence readings were normalized to controls and fit to a sigmoidaldose-response curve using GraphPad Prism 6 to determine IC50 values.

One may read the IC50 as the concentration at which inhibition is half-maximal. The low end stands for inhibition by little substance, the high end for a need for much substance.

Chain of Poly [ADP-ribose] polymerase 1 (P09874 whole entry): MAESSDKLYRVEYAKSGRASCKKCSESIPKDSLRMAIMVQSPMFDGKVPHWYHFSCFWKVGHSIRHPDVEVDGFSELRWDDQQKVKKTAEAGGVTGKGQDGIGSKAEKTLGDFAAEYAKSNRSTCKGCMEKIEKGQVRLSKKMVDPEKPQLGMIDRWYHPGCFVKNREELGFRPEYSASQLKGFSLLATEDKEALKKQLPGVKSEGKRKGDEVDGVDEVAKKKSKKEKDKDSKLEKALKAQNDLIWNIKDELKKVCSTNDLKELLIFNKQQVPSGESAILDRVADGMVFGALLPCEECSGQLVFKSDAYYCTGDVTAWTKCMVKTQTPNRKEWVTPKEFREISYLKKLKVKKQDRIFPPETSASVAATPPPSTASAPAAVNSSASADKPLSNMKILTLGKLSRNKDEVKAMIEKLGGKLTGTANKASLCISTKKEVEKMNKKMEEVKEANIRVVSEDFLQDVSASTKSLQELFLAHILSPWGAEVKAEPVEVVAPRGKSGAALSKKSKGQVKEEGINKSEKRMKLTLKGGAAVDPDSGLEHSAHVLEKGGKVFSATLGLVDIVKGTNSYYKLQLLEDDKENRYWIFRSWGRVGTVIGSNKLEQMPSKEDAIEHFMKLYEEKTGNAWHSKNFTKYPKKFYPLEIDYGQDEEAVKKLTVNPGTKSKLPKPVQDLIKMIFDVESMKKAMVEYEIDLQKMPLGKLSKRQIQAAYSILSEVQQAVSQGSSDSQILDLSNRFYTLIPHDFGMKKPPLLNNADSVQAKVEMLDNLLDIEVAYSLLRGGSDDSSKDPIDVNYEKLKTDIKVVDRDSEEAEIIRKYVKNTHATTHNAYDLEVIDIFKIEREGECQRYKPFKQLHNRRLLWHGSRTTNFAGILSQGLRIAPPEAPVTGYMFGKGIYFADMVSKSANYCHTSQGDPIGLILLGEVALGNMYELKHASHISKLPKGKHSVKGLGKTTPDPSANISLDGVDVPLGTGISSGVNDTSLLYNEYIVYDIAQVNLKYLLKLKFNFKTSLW

In test [1], `CNCc1ccc(-c2[nH]c3cc(F)cc4c3c2CCNC4=O)cc1` [AG-014699] yielded an IC50 of 18000 nM. The molecule `NCCCN1CCC[C@@H](c2ccc(-n3cc4cccc(C(N)=O)c4n3)cc2)C1` [c-Niraparib] gave an IC50 in test [2] of 48.4 nM. This counts as double-digit nanomolar. The same measure, in the same setting: the value for `NCCCC(=O)N1CCN(C(=O)c2cc(Cc3n[nH]c(=O)c4ccccc34)ccc2F)CC1` [c-Olaparib] was 5.9 nM; that for `CN(CCCN)Cc1ccc(-c2[nH]c3cc(F)cc4c3c2CCNC4=O)cc1` [c-Rucaparib] was 4.4 nM. For `C[C@]1(c2nc3c(C(N)=O)cccc3[nH]2)CCCN1CCCN` [c-Veliparib], the midpoint of inhibition in test [2], the IC50, lay at 8.4 nM.
